Source: patent US20160061841A1, “NRF2-BASED CANCER TREATMENT AND DETECTION METHODS AND USES” (CanBas Co., Ltd., priority 2014, published 2016)
“Also recorded” adds a separate entry of the source. Where no end group is shown, it is not given here. [ ]: non-standard residue; d: D form. dPhe(F5) = N[C@H](Cc1c(F)c(F)c(F)c(F)c1F)C(=O)O; dBpa = N[C@H](Cc1ccc(C(=O)c2ccccc2)cc1)C(=O)O; dCha = N[C@H](CC1CCCCC1)C(=O)O

Key:
calmodulin = calmodulin (Homo sapiens, UniProt P0DP23); conditions: cited from earlier work
NCI-H2030 = experiment: CDDP-enhancing activity of CBP501, cell cycle distribution by flow-cytometry; assay type: cell-based, Human; conditions: 1 h co-exposure with CDDP, shift of subG1 or G2/M dose-response curve
Procedure: (§1) Cell culture and reagents. Human NSCLC cell lines were cultured in a variety of media, each supplemented with 10% fetal bovine serum (Invitrogen, San Diego, CA) at 37° C. with 5% CO2/air. The media used was RPMI1640 (Sigma-Aldrich, St. Louis, Mo.) for NCI-H1755, NCI-H2030, NCI-H1437, NCI-H2122, NCI-H2172, NCI-H2228, NCI-H1563, NCI-H1944, NCI-H1993, NCI-H1734, NCI-H1568, NCI-H2444, NCI-H2291, NCI-H2347, NCI-H1838, NCI-H1299, HCC827, NCI-H1975, NCI-H1155, NCI-H522 and NCI-H1703; RPMI1640 supplemented with 2mM L-glutamine (Invitrogen) for NCI-H727; RPMI1640 supplemented with 4.5 g/L D-glucose (Sigma-Aldrich), 10 mM HEPES (Sigma-Aldrich) and 1 mM sodium pyruvate (Sigma-Aldrich) for NCI-H358, NCI-H520, NCI-H23, NCI-H647 and NCI-H838; Ham's F12K (Sigma-Aldrich) for A549. CDDP was purchased from Sigma-Aldrich. Sulforaphane (SFN) was purchased from Sigma-Aldrich. All NSCLC cell lines were purchased from ATCC and STR analysis had been performed by ATCC to authenticate the identity of each cell line. All cell lines were used within three months after thawing.
(§2) Cell cycle analysis. Cells were plated in 24-well plates and incubated for 24 hours. The cells were treated with or without CDDP plus or minus CBP501 at the indicated concentration for the indicated times. The cells were harvested and stained with Krishan's solution (0.1% sodium citrate, 50 μg/ml propidium iodide, 20 μg/ml RNase A, 0.5% NP-40). Stained cells were analyzed by FACSCalibur (Becton Dickinson, Franklin Lakes, N.J.) using CELLQuest software (Becton Dickinson).
(§3) Here, the change in the cell cycle distribution, as indicated by flow-cytometry, was used to estimate the sensitivity of NSCLC cell lines to CBP501-enhanced cytotoxicity to CDDP. Such changes were monitored in cells treated with CDDP in the presence or absence of CBP501. The utility of this analysis for assessing the effectiveness of anti-cancer therapy is based on the absence of functioning G1/S checkpoint regulation in the cell cycle of many types of cancer cells (14). Lack of a functional G1/S checkpoint leads to an accumulation of cancer cells in G2/M phase upon their exposure to DNA-damaging anticancer agents (14, 15).
(§4) To assess the CDDP-enhancing activity of CBP501, one can examine either of two dose-response curves in which the X-axis indicates the dose of CDDP and Y-axis indicates either the number of cells in subG1 or in G2/M. The transition and peak in either dose-response curve will shift to the left in the presence of CBP501 for CBP501-sensitive cells, indicating the enhanced ability of CDDP to change the cell cycle distribution. […] Using this criterion based on CBP501's ability to shift the CDDP-induced subG1 or G2/M dose-response curve, twelve NSCLC cell lines were classified as being either, CBP501-sensitive or CBP501-insensitive. Cell lines that shifted the curve two fold or more were classified as CBP501 sensitive cells and those that shifted the curve less than two fold were classified as CBP501 insensitive (Table 1). Classification of CBP501 sensitivity in NSCLC cell lines.

NCI-H2347 = experiment: as above; assay type: cell-based, Human; conditions: 1 h co-exposure with CDDP
Procedure: as §1, §2, §3, §4

NCI-H1944 = experiment: as above; assay type: cell-based, Human; conditions: 1 h co-exposure with CDDP, shift of subG1 or G2/M dose-response curve
Procedure: as §1, §2, §3, §4

NCI-H2444 = experiment: as above; assay type: cell-based, Human; conditions: 1 h co-exposure with CDDP
Procedure: as §1, §2, §3, §4

NCI-H2172 = experiment: as above; assay type: cell-based, Human; conditions: 1 h co-exposure with CDDP, shift of subG1 or G2/M dose-response curve
Procedure: as §1, §2, §3, §4

NCI-H1568 = experiment: as above; assay type: cell-based, Human; conditions: 1 h co-exposure with CDDP
Procedure: as §1, §2, §3, §4

NCI-H838 = experiment: as above; assay type: cell-based, Human; conditions: 1 h co-exposure with CDDP; for Folds increase of CDDP effect by CBP501: shift of subG1 or G2/M dose-response curve
Procedure: as §1, §2, §3, §4

NCI-H2228 = experiment: as above; assay type: cell-based, Human; conditions: 1 h co-exposure with CDDP
Procedure: as §1, §2, §3, §4

NCI-H2291 = experiment: as above; assay type: cell-based, Human; conditions: 1 h co-exposure with CDDP
Procedure: as §1, §2, §3, §4

NCI-H2122 = experiment: as above; assay type: cell-based, Human; conditions: 1 h co-exposure with CDDP, shift of subG1 or G2/M dose-response curve
Procedure: as §1, §2, §3, §4

[1] = test system: multiple kinases that phosphorylate CDC25C at Ser216; conditions: cited from earlier work
[2] = test system: platinum-resistant ovarian carcinoma and MPM; conditions: cited from earlier work
[3] = test system: H1437 Control (Ctrl)-shRNA and Nrf2-shRNA sub-lines; experiment: Cell cycle distribution after CDDP with or without CBP501 in H1437 Ctrl-shRNA and Nrf2-shRNA sub-lines; assay type: cell-based, Human; conditions: one hour treatment with CDDP with or without CBP501
Procedure: Cell cycle distribution changes are detected by Flow-cytometry (n=4). The graphs at the left are from the sub-line established by introducing Control (Ctrl)-shRNA into the H1437. The graphs at the right are from the sub-line established by indtroducing Nrf2-shRNA into H1437. Upper graphs indicate the subGl population. Lower graphs indicate the G2-M population. An asterisk indicates statistical significance (TTEST; p<0.001). N.S.=not significant (p>0.01).
as §2
Lentivirus infection. […] Lentivirus infection was performed according to manufacturer's instructions.
The effect of Nrf2 knock-down in the CBP501 insensitive cell line H1437 was investigated.

cancer cells [4] = conditions: cited from earlier work
14-3-3 protein = conditions: cited from earlier work
cancer cells [5] = conditions: shorter exposure and lower doses of CBP501 than required for G2 checkpoint abrogation; cited from earlier work
[6] = shift of subG1 or G2/M dose-response curve
[7] = NCI-H838 (Table 2, additional cell lines)

## (d-Bpa)(d-Ser)(d-Trp)(d-Ser)(d-Phe-2,3,4,5,6-F)(d-Cha)(d-Arg)(d-Arg)(d-Arg)(d-Gln)(d-Arg)(d-Arg) ([dBpa][dS][dW][dS][dPhe(F5)][dCha][dR][dR][dR][dQ][dR][dR]) [CBP501, anti-cancer drug candidate; calmodulin modulation and G2 checkpoint abrogation]
calmodulin
  Interaction with calmodulin: direct interaction
NCI-H2030
  Folds increase of CDDP effect by CBP501: 1 fold
NCI-H2347
  Definition of CBP501 sensitivity: Sensitive (Cell lines that shifted the curve two fold or more were classified as CBP501 sensitive cells)
NCI-H2347; [6]
  Folds increase of CDDP effect by CBP501: 4 fold
NCI-H1944
  Folds increase of CDDP effect by CBP501: 1.5 fold
NCI-H2444
  Definition of CBP501 sensitivity: Sensitive (Cell lines that shifted the curve two fold or more were classified as CBP501 sensitive cells)
NCI-H2444; [6]
  Folds increase of CDDP effect by CBP501: 2 fold
NCI-H2172
  Folds increase of CDDP effect by CBP501: 1.5 fold
NCI-H1568
  Definition of CBP501 sensitivity: Sensitive (Cell lines that shifted the curve two fold or more were classified as CBP501 sensitive cells)
NCI-H1568; [6]
  Folds increase of CDDP effect by CBP501: 2 fold
NCI-H838; NCI-H838 (Table 1, initial twelve cell lines)
  Folds increase of CDDP effect by CBP501: 4 fold
NCI-H838; [7]
  Definition of CBP501 sensitivity: Sensitive (Cell lines that shifted the curve two fold or more were classified as CBP501 sensitive cells)
  Folds increase of CDDP effect by CBP501: 2 fold
NCI-H2228
  Definition of CBP501 sensitivity: Insensitive (those that shifted the curve less than two fold were classified as CBP501 insensitive)
NCI-H2228; [6]
  Folds increase of CDDP effect by CBP501: 1.5 fold
NCI-H2291
  Definition of CBP501 sensitivity: Sensitive (Cell lines that shifted the curve two fold or more were classified as CBP501 sensitive cells)
NCI-H2291; [6]
  Folds increase of CDDP effect by CBP501: 2 fold
NCI-H2122
  Folds increase of CDDP effect by CBP501: 1 fold
[1]
  Inhibition of kinases that phosphorylate CDC25C at Ser216: inhibits multiple kinases that phosphorylate CDC25C at Ser216
[2]; MPM
  Primary endpoint for efficacy: primary endpoint for efficacy was achieved
[2]; combination of CDDP plus CBP501, patients with platinum-resistant ovarian carcinoma and MPM
  Clinical activity: showed evidence of clinical activity
[3]; H1437 Nrf2 knock-down
  Effect of CBP501 on CDDP-induced changes in cell cycle distribution (subG1, G2-M): increase the effects of CDDP on changes in the cell cycle distribution of subG1 and G2-M; also recorded: increases CBP501 sensitivity
[3]; H1437 control shRNA
  Effect of CBP501 on CDDP-induced changes in cell cycle distribution (subG1, G2-M): no difference in CDDP activity with or without CBP501
Cancer cells [4]
  Phosphorylation of CDC25C at Ser216: attenuates phosphorylation of CDC25C at Ser216
Cancer cells [4]; lengthy combined exposure with CDDP or bleomycin (BLM)
  Accumulation of cancer cells at G2/M: reduces the accumulation of cancer cells at G2/M
14-3-3 protein
  Binding to 14-3-3 protein: binds directly to 14-3-3 protein
Cancer cells [5]
  Uptake of CDDP into cancer cells: increased uptake of CDDP into cancer cells
